Laboratory results from patent US8278301B2, “2-alkylbenzoxazole carboxamides as 5HT3 modulators” (Albany Molecular Research, Inc., priority 2006, dated 2012).
Structures can show the parent of a compound that is named as a salt.

Target: T1, human 5-HT3 receptor (Homo sapiens, UniProt P46098)
T1 sequence (P46098 24-478): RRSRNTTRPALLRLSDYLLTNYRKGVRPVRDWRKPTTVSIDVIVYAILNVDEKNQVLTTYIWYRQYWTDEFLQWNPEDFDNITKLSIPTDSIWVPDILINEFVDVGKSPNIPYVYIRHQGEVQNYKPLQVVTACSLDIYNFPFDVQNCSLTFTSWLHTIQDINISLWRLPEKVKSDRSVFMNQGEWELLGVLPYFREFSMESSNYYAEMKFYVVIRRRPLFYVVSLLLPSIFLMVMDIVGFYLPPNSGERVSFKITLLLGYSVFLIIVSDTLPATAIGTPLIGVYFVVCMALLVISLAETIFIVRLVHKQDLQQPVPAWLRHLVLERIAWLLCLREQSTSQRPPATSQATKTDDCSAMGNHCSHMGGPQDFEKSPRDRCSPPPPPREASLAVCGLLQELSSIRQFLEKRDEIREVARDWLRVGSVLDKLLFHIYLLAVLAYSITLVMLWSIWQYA
Test: Compound affinity for the human 5-HT3 receptor (Assay B), SPA radioligand binding with [9-methyl-3H]BRL-43694
Set-up: purchased Perkin Elmer
Conditions: not given
Experimental: Compound Affinity for the Human 5-HT3 Receptor (Assay B)
The relative affinity of the various compounds for the human 5-HT3 receptor was measured in a radioligand binding assay, using a scintillation proximity assay (SPA) format. Test compounds were dissolved to 10 mM in 100% DMSO, then serially diluted at 10× assay concentrations in 100% DMSO in 96-well polypropylene plates and further diluted to 4× assay concentrations with the assay buffer. Samples were incubated in 50 mM Tris-HCl, pH 7.5, 3 mM MgCl2, 1 mM EDTA and 10% DMSO with 10 nM [9-methyl-3H]BRL-43694 (Perkin Elmer), 3 μg of human 5-HT3 receptor membranes (Perkin Elmer) and 0.5 mg/mL SPA beads (WGA PVT, Amersham Biosciences) in a final volume of 0.2 mL. Binding reactions were set up in wells of PicoPlates-96 (Perkin Elmer) by adding consecutively 50 μL of each competing compound or buffer, SPA beads, the radioligand and 5-HT3 receptor membranes. After 60-min incubation at room temperature on a Nutator mixer, plates were centrifuged for 15 min at 1,500 rpm, followed by incubation in the dark for 30 min. Radioactivity was counted in the TopCount microplate counter (Perkin Elmer) for 5 min. Total binding control contained buffer only; nonspecific binding was determined in the presence of 30 μM MDL-72222. Specific binding was determined by subtracting nonspecific binding from total binding. All experiments were performed in duplicate using ten concentrations of a competing ligand, with ondansetron included as a control in every run. IC50 values were determined from specific binding data using XLfit4.1 curve fitting software from IDBS Ltd. Ki values were then calculated from the Cheng-Prusoff equation.
(§1) In the table below, the assay in which the data were obtained is shown (as A, B. C, or D) along with the data.

| SMILES | Ki [nM] |
| --- | --- |
| CN1CCCCC1c1nc2c(C(=O)N[C@H]3C[C@H]4CCC[C@@H](C3)N4C)cccc2o1 (mixture of isomers) [Example 33, Endo-N-(9-Methyl-9-azabicyclo[3.3.1]nonan-3-yl)-2-(1-methylpiperidin-2-yl)benzoxazole-4-carboxamide Hydrochloride] | 21.6 |
| CN1[C@@H]2CCC[C@H]1C[C@@H](NC(=O)c1cccc3oc(C4CCNCC4)nc13)C2 [Example 27, Endo-N-(9-methyl-9-azabicyclo[3.3.1]non-3-yl)-2-(piperidin-4-yl)benzoxazole-4-carboxamide Dihydrochloride] | 41 |
| CN1CCC(c2nc3c(C(=O)N[C@H]4C[C@H]5CCC[C@@H](C4)N5C)cccc3o2)CC1 [Example 29, Endo-N-(9-methyl-9-azabicyclo[3.3.1]non-3-yl)-2-(1-methylpiperidin-4-yl)benzoxazole-4-carboxamide Dihydrochloride] | 28 |
| CN1CCC(c2nc3c(C(=O)N[C@@H]4CN5CCC4CC5)cccc3o2)CC1 [Example 30, (S)—N-(1-Azabicyclo[2.2.2]oct-3-yl)-2-(1-methylpiperidin-4-yl)benzoxazole-4-carboxamide Dihydrochloride Dihydrochloride] | 83 |
| CN1C2COCC1CC(NC(=O)c1cccc3oc(C4CCCC4)nc13)C2 (stereo not drawn) [Example 32, N-(9-methyl-3-oxa-9-azabicyclo[3.3.1]non-7-yl)-2-(cyclopentyl-4-yl)benzoxazole-4-carboxamide Hydrochloride] | 81.9 |
| O=C(NC1CC2CCCC(C1)N2)c1cccc2oc(C3CC3)nc12 (stereo not drawn) [Example 36, N-(9-Azabicyclo[3.3.1]non-3-yl)-2-cyclopropylbenzoxazole-4-carboxamide Hydrochloride] | 6.3 |
| CN1[C@@H]2CCC[C@H]1C[C@@H](NC(=O)c1cccc3oc(CN4CCOCC4)nc13)C2 [Example 39, Endo-N-(9-Methyl-9-azabicyclo[3.3.1]nonan-3-yl)-2-(morpholinomethyl)benzoxazole-4-carboxamide Hydrochloride] | 77.1 |
| CCN(CC)Cc1nc2c(C(=O)N[C@H]3C[C@H]4CCC[C@@H](C3)N4C)cccc2o1 [Example 41, Endo-N-(9-Methyl-9-azabicyclo[3.3.1]nonan-3-yl)-2-(diethylaminomethyl)benzoxazole-4-carboxamide Hydrochloride] | 15.3 |
| C[C@H]1OC(=O)N(C)C1c1nc2c(C(=O)NC3CC4CCCC(C3)N4C)cccc2o1 (stereo partly drawn) [Example 42, Endo-N-(9-methyl-9-azabicyclo[3.3.1]nonan-3-yl)-2-((4S,5R/4R,5S)-3,5-dimethyl-2-oxo-oxazolidin-4-yl)benzoxazole-4-carboxamide] | 24.9 |

Same assay, conditions: Assay B; 10 μM

| SMILES | inhibition at 10 µM [%] |
| --- | --- |
| O=C(N[C@@H]1CN2CCC1CC2)c1cccc2oc(CN3CCOCC3)nc12 [Example 38, (S)—N-(Azabicyclo[2.2.2]oct-3-yl)-2-(morpholinomethyl)benzoxazole-4-carboxamide Hydrochloride] | 74 |

Same assay, conditions: Assay B; SPA, [9-methyl-3H]BRL-43694; Cheng-Prusoff; read-out: Human 5HT3 Ki

| SMILES | Ki [nM] |
| --- | --- |
| O=C(N[C@@H]1CN2CCC1CC2)c1cccc2oc(C3CCOCC3)nc12 [Example 25, (S)—N-(1-Azabicyclo[2.2.2]oct-3-yl)-2-(tetrahydro-2H-pyran-4-yl)benzoxazole-4-carboxamide Hydrochloride] | 126 |
| CN1[C@@H]2CCC[C@H]1C[C@@H](NC(=O)c1cccc3oc(C45CCN(CC4)CC5)nc13)C2 [Example 26, Endo-N-(9-Methyl-9-azabicyclo[3.3.1]nonan-3-yl)-2-(quinuclidin-4-yl)benzoxazole-4-carboxamide Dihydrochloride] | 173 |
| O=C(N[C@@H]1CN2CCC1CC2)c1cccc2oc(C3CCNCC3)nc12 [Example 28, (S)—N-(1-Azabicyclo[2.2.2]oct-3-yl)-2-(piperidin-4-yl)benzoxazole-4-carboxamide Dihydrochloride] | 111 |
| CC(=O)N1CCC(c2nc3c(C(=O)N[C@@H]4CN5CCC4CC5)cccc3o2)CC1 [Example 31, (S)—N-(1-Azabicyclo[2.2.2]oct-3-yl)-2-(1-acetylpiperidin-4-yl)benzoxazole-4-carboxamide Hydrochloride] | 356 |
| CN1[C@@H]2CCC[C@H]1C[C@@H](NC(=O)c1cccc3nc(C(C)(C)C)oc13)C2 [Example 37, Endo-N-(9-methyl-9-azabicyclo[3.3.1]non-3-yl)-2-tert-butyl benzoxazole-7-carboxamide Hydrochloride] | 166 |
| CCN(CC)Cc1nc2c(C(=O)NC3CN4CCC3CC4)cccc2o1 [Example 40, (S)—N-(Azabicylco[2.2.2]oct-3-yl)-2-(diethylaminomethyl)benzoxazole-4-carboxamide Hydrochloride] | 129 |

Target: T2, mouse 5-HT3 receptor (Mus musculus, UniProt P23979)
T2 construct: host or cells: mouse neuroblastoma cells (N1E-155 as printed)
T2 sequence (P23979 24-489): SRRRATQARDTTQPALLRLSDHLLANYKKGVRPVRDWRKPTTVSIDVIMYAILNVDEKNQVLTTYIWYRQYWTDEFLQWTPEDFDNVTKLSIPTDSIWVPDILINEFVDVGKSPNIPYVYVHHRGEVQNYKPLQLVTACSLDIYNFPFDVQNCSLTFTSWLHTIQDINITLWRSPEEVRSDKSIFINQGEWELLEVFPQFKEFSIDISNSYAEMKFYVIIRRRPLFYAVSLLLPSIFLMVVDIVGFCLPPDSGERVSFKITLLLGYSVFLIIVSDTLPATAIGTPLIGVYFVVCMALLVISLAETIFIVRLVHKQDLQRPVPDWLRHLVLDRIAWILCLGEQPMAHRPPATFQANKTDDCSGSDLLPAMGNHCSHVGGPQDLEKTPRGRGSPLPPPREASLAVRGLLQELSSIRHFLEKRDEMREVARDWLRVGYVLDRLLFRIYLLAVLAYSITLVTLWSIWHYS
Test: Compound affinity for the mouse 5-HT3 receptor (Assay C), [3H]-GR65630 radioligand binding, Novoscreen
Conditions: Assay C; single concentration 100 nM, in duplicate; [3H]-GR65630; read-out: Mouse % Inhibition @ 100 nM
Experimental: Compound Affinity for the Mouse 5-HT3Receptor (Assay C)
Compounds were tested by Novoscreen Biosciences Corporation, 7170 Standard Drive, Hanover, Md. in a radioligand binding assay using the mouse 5-HT3 receptor derived from mouse neuroblastoma cells and [^3H]-GR65630 (ligand). The non-specific binding determinant was MDL 72222. Compounds were tested at a single concentration of 100 nM in duplicate. Percent inhibition is reported. In order to evaluate the relative affinity of the various compounds for the 5-HT3 receptor, N1E-155 cell lines were developed to express the target protein. For binding, these cells were homogenized, centrifuged and washed with buffer (20 mM HEPES, 150 mM NaCl, pH 7.4) then suspended in 0.5 mL of buffer and [^3H]-GR65630 added at a concentration of 3.5×10^−10 M. An initial single concentration of 10^−7 M of the test compound was then added. Incubation was carried out at room temperature for 60 minutes at 25° C. then was terminated by rapid removal of the incubation medium. Radioactivity was assessed using liquid scintillation spectrophotometry after exposure to scintillation cocktail for at least three hours. […] Ki values were then calculated from the Cheng-Prusoff equation. In all of the above binding studies the non-specific determinant was MDL-72222 (1.0 μM).
as §1

| SMILES | inhibition at 0.1 µM [%] |
| --- | --- |
| O=C(N[C@@H]1CN2CCC1CC2)c1cccc2oc(C3CCCC3)nc12 [Example 6, (S)—N-(1-Azabicyclo[2.2.2]oct-3-yl)-2-cyclopentylbenzoxazole-4-carboxamide Hydrochloride] | 90.2 |
| CN1C2CCCC1CC(NC(=O)c1cccc3oc(C4CCCCC4)nc13)C2 (stereo not drawn) [Example 15, Endo-N-(9-Methyl-9-azabicyclo[3.3.1]non-3-yl)-2-cyclohexylbenzoxazole-4-carboxamide Hydrochloride] | 105 |
| O=C(N[C@@H]1CN2CCC1CC2)c1cccc2oc(C3CCCCC3)nc12 [Example 16, (S)—N-(1-Azabicyclo[2.2.2]oct-3-yl)-2-cyclohexylbenzoxazole-4-carboxamide Hydrochloride] | 94.1 |
| CCN1C2CCCC1CC(NC(=O)c1cccc3oc(C4CC4)nc13)C2 (stereo not drawn) [Example 21, N-(9-Ethyl-9-azabicyclo[3.3.1]non-3-yl)-2-cyclopropylbenzoxazole-4-carboxamide Hydrochloride] | 34.9 |

Same assay, conditions: read-out: Mouse % Inhibition @ 100 nM

| SMILES | inhibition at 0.1 µM [%] |
| --- | --- |
| CC1CC1c1nc2c(C(=O)NC3CN4CCC3CC4)cccc2o1 (racemic) [Example 14, (S)—N-(1-Azabicyclo[2.2.2]oct-3-yl)-2-(2-methylcyclopropyl)benzoxazole-4-carboxamide Hydrochloride] | 93.6 |
